In patent US6063926A, “Substituted oximes as neurokinin antagonists” (Schering Corporation, priority 1998, dated 2000) one finds Ki data, which are given here for 33 molecules.

In one assay the target is NK1 receptor (Homo sapiens, UniProt P25103). The experiment in a line: neurokinin receptor binding assay, NK1 (Ki). As to conditions: read-out: Ki (NK1). From the text:
(§1) The in vitro and in vivo activity of the compounds of formula I can be determined by various procedures known in the art, such as a test for their ability to inhibit the activity of the NK1 agonist Substance P, an isolated hamster trachea NK2 assay, a test of the effect of NK1 antagonists on Substance P-induced airway microvascular leakage, measurement of NK2 activity in vivo in guinea pigs, measurement of bronchoconstriction due to NKA, and neurokinin receptor binding assay(s). Typical procedures are described in WO96/34857, published Nov. 7, 1996. NK3 activity is determined by following a procedure similar to that described in the literature, e.g., Molecular Pharmacol., 48 (1995), p. 711-716.
(§2) % Inhibition is the difference between the percent of maximum specific binding (MSB) and 100%. The percent of MSB is defined by the following equation, wherein "dpm" is disintegrations per minute: [formula]
(§3) Using the test procedures described above, the following 35 data (Ki) were obtained for exemplified compounds: […]

In another assay the target is T1, NK2 receptor (Homo sapiens, UniProt P21452).
T1 sequence (P21452 1-398): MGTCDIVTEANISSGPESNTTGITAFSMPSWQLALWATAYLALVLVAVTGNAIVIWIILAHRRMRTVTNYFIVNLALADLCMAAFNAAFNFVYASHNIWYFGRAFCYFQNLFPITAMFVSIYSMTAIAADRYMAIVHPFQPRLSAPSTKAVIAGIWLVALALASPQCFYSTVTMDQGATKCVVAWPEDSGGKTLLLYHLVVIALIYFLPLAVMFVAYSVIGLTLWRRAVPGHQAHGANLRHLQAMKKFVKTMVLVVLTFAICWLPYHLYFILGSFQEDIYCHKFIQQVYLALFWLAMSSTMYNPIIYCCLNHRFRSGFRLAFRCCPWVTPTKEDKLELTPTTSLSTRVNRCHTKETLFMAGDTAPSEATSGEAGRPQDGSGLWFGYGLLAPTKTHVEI
The experiment in a line: neurokinin receptor binding assay, NK2 (Ki). The settings on record: read-out: Ki (NK2).
Description: as §1, §2, §3

NK1 receptor, sequence (P25103 whole entry): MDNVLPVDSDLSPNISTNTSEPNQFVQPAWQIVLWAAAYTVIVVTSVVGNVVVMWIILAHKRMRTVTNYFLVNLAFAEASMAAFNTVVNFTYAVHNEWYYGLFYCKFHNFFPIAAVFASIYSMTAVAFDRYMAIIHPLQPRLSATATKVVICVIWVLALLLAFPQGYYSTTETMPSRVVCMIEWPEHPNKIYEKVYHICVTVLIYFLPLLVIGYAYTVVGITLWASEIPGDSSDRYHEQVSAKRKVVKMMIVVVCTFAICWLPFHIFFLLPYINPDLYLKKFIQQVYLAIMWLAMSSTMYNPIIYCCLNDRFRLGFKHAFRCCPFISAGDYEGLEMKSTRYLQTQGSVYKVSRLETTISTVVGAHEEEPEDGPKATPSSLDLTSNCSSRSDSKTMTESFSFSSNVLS

One may read the Ki as a dissociation constant, usually derived from enzyme kinetics or from competition with a known ligand. Take `CON=C(CN(C)C(=O)c1cc(C)cc(Cl)c1)C(CCN1CCC(N2CCCC(CC(=O)N(C)C)C2=O)CC1)c1ccc(Cl)c(Cl)c1` (stereo not drawn) [Example 27]: the Ki was 0.7 nM at NK1 receptor and 1.2 nM at NK2 receptor.

Turning to `CNC(=O)C[C@H]1CCCN(C2CCN(CC[C@@H](C(CN(C)C(=O)c3cc(Cl)cc(Cl)c3)=NOC)c3ccc(Cl)c(Cl)c3)CC2)C1=O` [Example 13B], the values for the inhibitory constant (Ki) on NK1 receptor and on NK2 receptor were 0.9 nM and 0.3 nM, respectively.

As for `CON=C(CN(C)C(=O)c1cc(Cl)cc(Cl)c1)C(CCN1CCC(N2CCCC(CC(=O)N3CC(O)C3)C2=O)CC1)c1ccc(Cl)c(Cl)c1` (stereo not drawn) [Example 12E], the Ki on NK1 receptor worked out at 0.4 nM; on NK2 receptor, 0.2 nM.

Consider `CON=C(CN(C)C(=O)c1cc(Cl)cc(Cl)c1)C(CCN1CCC(N2CCCC(CC(=O)N3CCCC3)C2=O)CC1)c1ccc(Cl)c(Cl)c1` (stereo not drawn) [Example 12F], for which the Ki at NK1 receptor came to 0.6 nM; at NK2 receptor, 0.8 nM.

`CN(C)C(=O)CC1CCCN(C2CCN(CCC(C(CN(C)C(=O)c3cc(Cl)cc(Cl)c3)=NOCC(N)=NO)c3ccc(Cl)c(Cl)c3)CC2)C1=O` (stereo not drawn) [Example 14D]: the Ki at NK1 receptor was 0.3 nM; on NK2 receptor, 0.2 nM.

As to `CON=C(CN(C)C(=O)c1cc(Cl)cc(Cl)c1)[C@H](CCN1CCC(N2CCC[C@H](CC(=O)OC)C2=O)CC1)c1ccc(Cl)c(Cl)c1` [Example 13F], the Ki turned out to be 0.2 nM on NK1 receptor and 0.3 nM at NK2 receptor.

Take `COc1cc(C(=O)N(C)CC(=NOCC(N)=NO)C(CCN2CCC(N3CCCCC3=O)CC2)c2ccc(Cl)c(Cl)c2)cc(OC)c1C` (stereo not drawn) [Example 21B]: the Ki at NK1 receptor amounted to 6 nM; on NK2 receptor, 0.5 nM.

In the case of `CN(CC(=NO)C(CCN1CCC(N2CCCC(CC(N)=O)C2=O)CC1)c1ccc(Cl)c(Cl)c1)C(=O)c1cc(Cl)cc(Cl)c1` (stereo not drawn) [Example 16A], the Ki on NK1 receptor stood at 0.2 nM; on NK2 receptor, 0.7 nM.

Turning to `CNC(=O)CC1CCCN(C2CCN(CCC(C(CN(C)C(=O)c3cc(Cl)cc(Cl)c3)=NOCCCS(=O)(=O)O)c3ccc(Cl)c(Cl)c3)CC2)C1=O` (stereo not drawn) [Example 15H], the Ki at NK1 receptor worked out at 0.2 nM; on NK2 receptor, 0.4 nM.

For `CNC(=O)CC1CCCN(C2CCN(CCC(C(CN(C)C(=O)c3cc(Cl)cc(Cl)c3)=NOCF)c3ccc(Cl)c(Cl)c3)CC2)C1=O` (stereo not drawn) [Example 15K], the Ki was 0.5 nM at NK1 receptor and 0.2 nM on NK2 receptor.

With `CCN(CC(=NOC)C(CCN1CCC(N2CCC[C@H](CC(N)=O)C2=O)CC1)c1ccc(Cl)c(Cl)c1)C(=O)c1cc(Cl)cc(Cl)c1` (stereo partly drawn) [Example 28C], the Ki was 0.4 nM at NK1 receptor and 0.6 nM on NK2 receptor.

Turning to `CON=C(CN(C)C(=O)c1cc(Cl)cc(Cl)c1)[C@H](CCN1CCC(N2CCC[C@H](CC(=O)N(C)C)C2=O)CC1)c1ccc(Cl)c(Cl)c1` [Example 13A], the values for the Ki at NK1 receptor and at NK2 receptor were 0.8 nM and 0.2 nM, respectively.

Turning to `CN(CC(=NOCF)C(CCN1CCC(N2CCCCC2=O)CC1)c1ccc(Cl)c(Cl)c1)C(=O)c1cc(Cl)cc(Cl)c1` (stereo not drawn) [Example 17S], the inhibition constant Ki at NK1 receptor and on NK2 receptor was 0.8 nM throughout.

Take `CON=C(CN(C)C(=O)c1cc(Cl)cc(Cl)c1)C(CCN1CCC(c2ccccc2[S+](C)[O-])CC1)c1ccc(Cl)c(Cl)c1` (stereo not drawn) [Example 36]: the Ki on NK1 receptor is 0.8 nM; on NK2 receptor, 1 nM.

On to `CNC(=O)CC1CCCN(C2CCN(CCC(C(CN(C)C(=O)c3cc(Cl)cc(Cl)c3)=NOCC#N)c3ccc(Cl)c(Cl)c3)CC2)C1=O` (stereo not drawn) [Example 15B], for which the Ki on NK1 receptor came to 1.7 nM; at NK2 receptor it was 0.8 nM.

As for `CON=C(CN(C)C(=O)c1cc(Cl)cc(Cl)c1)[C@H](CCN1CCC(N2CCC[C@H](CC(=O)O)C2=O)CC1)c1ccc(Cl)c(Cl)c1` [Example 13E], the figures for the Ki at NK1 receptor and at NK2 receptor were 0.4 nM and 0.6 nM, respectively.

Turning to `CON=C(CN(C)C(=O)c1cc(C)cc(C)c1)C(CCN1CCC(N2CCCCC2=O)CC1)c1ccc(Cl)c(Cl)c1` (stereo not drawn) [Example 18B], the results for the inhibition constant (Ki) on NK1 receptor and at NK2 receptor were 0.8 nM and 0.4 nM, respectively.

Take `CON=C(CN(C)C(=O)c1cc(C)nc(Cl)c1)C(CCN1CCC(O)(c2ccccc2)CC1)c1ccc(Cl)c(Cl)c1` (stereo not drawn) [Example 30A]: the Ki on NK1 receptor was determined as 1.4 nM; at NK2 receptor, 1.9 nM.

For `CON=C(N)CON=C(CN(C)C(=O)c1cc(OC)c(OC)c(OC)c1)C(CCN1CCC(O)(c2ccccc2)CC1)c1ccc(Cl)c(Cl)c1` (stereo not drawn) [Example 37], the Ki at NK1 receptor and at NK2 receptor was 0.7 nM throughout.

As to `CNC(=O)CC1CCCN(C2CCN(CCC(C(CN(C)C(=O)c3cc(C)cc(C)c3)=NOC)c3ccc(Cl)c(Cl)c3)CC2)C1=O` (stereo not drawn) [Example 35], the Ki is 0.6 nM at NK1 receptor and 0.3 nM at NK2 receptor.

Turning to `CNC(=O)CC1CCCN(C2CCN(CCC(C(CNC(=O)c3cc(Cl)cc(Cl)c3)=NOC)c3ccc(Cl)c(Cl)c3)CC2)C1=O` (stereo not drawn) [Example 29B], the Ki was determined as 5.2 nM on NK1 receptor and 1.3 nM at NK2 receptor.

As to `CNC(=O)CON=C(CN(C)C(=O)c1cc(Cl)cc(Cl)c1)C(CCN1CCC(N2CCCC(CC(=O)NC)C2=O)CC1)c1ccc(Cl)c(Cl)c1` (stereo not drawn) [Example 15E], the Ki turned out to be 0.5 nM on NK1 receptor and 1 nM at NK2 receptor.

For the molecule `CON=C(N)CON=C(CN(C)C(=O)c1cc(C)cc(C)c1)C(CCN1CCC(N2CCCCC2=O)CC1)c1ccc(Cl)c(Cl)c1` (stereo not drawn) [Example 18M], the Ki at NK1 receptor amounted to 0.2 nM; at NK2 receptor, 0.4 nM.

Take `CON=C(CNC(=O)c1cc(Cl)cc(Cl)c1)C(CCN1CCC(N2CCC[C@H](CC(N)=O)C2=O)CC1)c1ccc(Cl)c(Cl)c1` (stereo partly drawn) [Example 29C]: the Ki worked out at 2.6 nM at NK1 receptor and 0.7 nM on NK2 receptor.

For `Cc1cc(C)cc(C(=O)N(C)CC(=NOCC(N)=NO)C(CCN2CCC(N3CCCCC3=O)CC2)c2ccc(Cl)c(Cl)c2)c1` (stereo not drawn) [Example 18E], the Ki on NK1 receptor and on NK2 receptor was 0.4 nM throughout.

On to `CON=C(CN(C)C(=O)c1cc(Cl)cc(Cl)c1)[C@H](CCN1CCC(N2CCCCC2=O)CC1)c1ccc(Cl)c(Cl)c1` [Example 13D], for which the figures for the Ki at NK1 receptor and at NK2 receptor were 1.1 nM and 0.7 nM, respectively.

Turning to `CN(CC(=NO)C(CCN1CCC(N2CCCCC2=O)CC1)c1ccc(Cl)c(Cl)c1)C(=O)c1cc(Cl)cc(Cl)c1` (stereo not drawn) [Example 17A], the Ki at NK1 receptor amounted to 0.5 nM; at NK2 receptor, 3 nM.

In the case of `COc1cc(C(=O)N(C)CC(=NOCC(N)=NO)C(CCN2CCC(O)(c3ccccc3)CC2)c2ccc(Cl)c(Cl)c2)cc(OC)c1OC` (stereo not drawn) [Example 23], the results for the Ki on NK1 receptor and on NK2 receptor were 0.8 nM and 0.5 nM, respectively.

On to `CON=C(CN(C)C(=O)c1cc(Cl)cc(Cl)c1)C(CCN1CCC(N2CCCC(CC(=O)N3CCOCC3)C2=O)CC1)c1ccc(Cl)c(Cl)c1` (stereo not drawn) [Example 12K], for which the results for the Ki at NK1 receptor and at NK2 receptor were 0.9 nM and 0.5 nM, respectively.

Turning to `Cc1cc(C(=O)N(C)CC(=NOCC(N)=NO)C(CCN2CCC(O)(c3ccccc3)CC2)c2ccc(Cl)c(Cl)c2)cc(Cl)n1` (stereo not drawn) [Example 31], the results for the Ki at NK1 receptor and on NK2 receptor were 0.4 nM and 1.8 nM, respectively.

Consider `CCON=C(CN(C)C(=O)c1cc(Cl)cc(Cl)c1)C(CCN1CCC(N2CCCC(CC(=O)NC)C2=O)CC1)c1ccc(Cl)c(Cl)c1` (stereo not drawn) [Example 15L], for which the Ki on NK1 receptor was determined as 1 nM; on NK2 receptor, 1.4 nM.

Take `CON=C(N)CON=C(CN(C)C(=O)c1cc(Cl)cc(Cl)c1)C(CCN1CCC(N2CCCC(CC(=O)N(C)C)C2=O)CC1)c1ccc(Cl)c(Cl)c1` (stereo not drawn) [Example 14E]: the Ki at NK1 receptor was found to be 0.2 nM; at NK2 receptor it was 0.4 nM.

Take `CNC(=O)C[C@H]1CCCN(C2CC[N+]([O-])(CC[C@@H](C(CN(C)C(=O)c3cc(Cl)cc(Cl)c3)=NOC)c3ccc(Cl)c(Cl)c3)CC2)C1=O` (stereo partly drawn) [Example 13H]: the values for the Ki on NK1 receptor and at NK2 receptor were 2.6 nM and 0.4 nM, respectively.
